Source: patent US20140155580A1, “TRANSGENIC AVES PRODUCING HUMAN POLYCLONAL ANTIBODIES” (Synageva BioPharma Corp., priority 2003, published 2014)

Test system: chicken embryonic stem cells
Assay: Titration kill curve: cES cells in culture exposed to puromycin or neomycin
Type: cell-based
Set-up: key to Morphology of cES cells: ES: ES cells are present.; diff: ES cells are differentiated.; gone: no morphologically recognizable cells are present
Protocol: In a preferred embodiment, the concentration of puromycin required for selecting transfected cells is calculated as a titration kill curve. Titration kill curves for chicken embryonic stem cells are established by exposing cells in culture to puromycin concentrations varying from 0.0 to 1.0 μg/ml for 10 days (Table 7) and neomycin concentrations varying from 0.0 to 200 μg/ml (Table 8). The medium is changed every 2 days and fresh puromycin or neomycin is added. […] Puromycin concentrations of 0.3-1.0 μg/ml are used for selection of the transfected cultures. Neomycin concentrations over 40 μg/ml eliminated all cES cells within 7 days (Table 8).

COc1ccc(C[C@H](N)C(=O)N[C@H]2[C@@H](O)[C@H](n3cnc4c(N(C)C)ncnc43)O[C@@H]2CO)cc1 [Puromycin, puromycin]
Presence of ES cells in wells after exposure (0.3 μg/ml puromycin, 3 changes of medium with fresh puromycin over a six day period): absent from all wells
Morphology of cES cells (puromycin 0.1 μg/ml, day 1 under selection): ES
Morphology of cES cells (puromycin 0.1 μg/ml, day 2 under selection): ES
Morphology of cES cells (puromycin 0.1 μg/ml, day 3 under selection): ES
Morphology of cES cells (puromycin 0.1 μg/ml, day 4 under selection): ES
Morphology of cES cells (puromycin 0.1 μg/ml, day 5 under selection): ES
Morphology of cES cells (puromycin 0.1 μg/ml, day 6 under selection): ES
Morphology of cES cells (puromycin 0.1 μg/ml, day 7 under selection): ES
Morphology of cES cells (puromycin 0.1 μg/ml, day 8 under selection): ES
Morphology of cES cells (puromycin 0.1 μg/ml, day 9 under selection): ES
Morphology of cES cells (puromycin 0.1 μg/ml, day 10 under selection): ES
Morphology of cES cells (puromycin 0.2 μg/ml, day 1 under selection): ES
Morphology of cES cells (puromycin 0.2 μg/ml, day 2 under selection): ES
Morphology of cES cells (puromycin 0.2 μg/ml, day 3 under selection): ES
Morphology of cES cells (puromycin 0.2 μg/ml, day 4 under selection): ES
Morphology of cES cells (puromycin 0.2 μg/ml, day 5 under selection): ES
Morphology of cES cells (puromycin 0.2 μg/ml, day 6 under selection): ES
Morphology of cES cells (puromycin 0.2 μg/ml, day 7 under selection): ES
Morphology of cES cells (puromycin 0.2 μg/ml, day 8 under selection): ES
Morphology of cES cells (puromycin 0.2 μg/ml, day 9 under selection): ES
Morphology of cES cells (puromycin 0.2 μg/ml, day 10 under selection): ES
Morphology of cES cells (puromycin 0.25 μg/ml, day 1 under selection): ES
Morphology of cES cells (puromycin 0.25 μg/ml, day 2 under selection): ES
Morphology of cES cells (puromycin 0.25 μg/ml, day 3 under selection): ES
Morphology of cES cells (puromycin 0.25 μg/ml, day 4 under selection): ES
Morphology of cES cells (puromycin 0.25 μg/ml, day 5 under selection): ES
Morphology of cES cells (puromycin 0.25 μg/ml, day 6 under selection): diff
Morphology of cES cells (puromycin 0.25 μg/ml, day 7 under selection): diff
Morphology of cES cells (puromycin 0.3 μg/ml, day 1 under selection): ES
Morphology of cES cells (puromycin 0.3 μg/ml, day 2 under selection): ES
Morphology of cES cells (puromycin 0.3 μg/ml, day 3 under selection): diff
Morphology of cES cells (puromycin 0.3 μg/ml, day 6 under selection): gone
Morphology of cES cells (puromycin 0.3 μg/ml, day 7 under selection): gone
Morphology of cES cells (puromycin 0.3 μg/ml, day 8 under selection): gone
Morphology of cES cells (puromycin 0.3 μg/ml, day 9 under selection): gone
Morphology of cES cells (puromycin 0.3 μg/ml, day 10 under selection): gone
Morphology of cES cells (puromycin 0.4 μg/ml, day 1 under selection): ES
Morphology of cES cells (puromycin 0.4 μg/ml, day 2 under selection): diff
Morphology of cES cells (puromycin 0.4 μg/ml, day 3 under selection): gone
Morphology of cES cells (puromycin 0.4 μg/ml, day 4 under selection): gone
Morphology of cES cells (puromycin 0.4 μg/ml, day 5 under selection): gone
Morphology of cES cells (puromycin 0.4 μg/ml, day 6 under selection): gone
Morphology of cES cells (puromycin 0.4 μg/ml, day 7 under selection): gone
Morphology of cES cells (puromycin 0.4 μg/ml, day 8 under selection): gone
Morphology of cES cells (puromycin 0.4 μg/ml, day 9 under selection): gone
Morphology of cES cells (puromycin 0.4 μg/ml, day 10 under selection): gone
Morphology of cES cells (puromycin 0.5 μg/ml, day 1 under selection): diff
Morphology of cES cells (puromycin 0.5 μg/ml, day 2 under selection): gone
Morphology of cES cells (puromycin 0.5 μg/ml, day 3 under selection): gone
Morphology of cES cells (puromycin 0.5 μg/ml, day 4 under selection): gone
Morphology of cES cells (puromycin 0.5 μg/ml, day 5 under selection): gone
Morphology of cES cells (puromycin 0.5 μg/ml, day 6 under selection): gone
Morphology of cES cells (puromycin 0.5 μg/ml, day 7 under selection): gone
Morphology of cES cells (puromycin 0.5 μg/ml, day 8 under selection): gone
Morphology of cES cells (puromycin 0.5 μg/ml, day 9 under selection): gone
Morphology of cES cells (puromycin 0.5 μg/ml, day 10 under selection): gone
Morphology of cES cells (puromycin 0.6 μg/ml, day 1 under selection): diff
Morphology of cES cells (puromycin 0.6 μg/ml, day 2 under selection): gone
Morphology of cES cells (puromycin 0.6 μg/ml, day 3 under selection): gone
Morphology of cES cells (puromycin 0.6 μg/ml, day 4 under selection): gone
Morphology of cES cells (puromycin 0.6 μg/ml, day 5 under selection): gone
Morphology of cES cells (puromycin 0.6 μg/ml, day 6 under selection): gone
Morphology of cES cells (puromycin 0.6 μg/ml, day 7 under selection): gone
Morphology of cES cells (puromycin 0.6 μg/ml, day 8 under selection): gone
Morphology of cES cells (puromycin 0.6 μg/ml, day 9 under selection): gone
Morphology of cES cells (puromycin 0.6 μg/ml, day 10 under selection): gone
Morphology of cES cells (puromycin 0.7 μg/ml, day 1 under selection): diff
Morphology of cES cells (puromycin 0.7 μg/ml, day 2 under selection): gone
Morphology of cES cells (puromycin 0.7 μg/ml, day 3 under selection): gone
Morphology of cES cells (puromycin 0.7 μg/ml, day 4 under selection): gone
Morphology of cES cells (puromycin 0.7 μg/ml, day 5 under selection): gone
Morphology of cES cells (puromycin 0.7 μg/ml, day 6 under selection): gone
Morphology of cES cells (puromycin 0.7 μg/ml, day 7 under selection): gone
Morphology of cES cells (puromycin 0.7 μg/ml, day 8 under selection): gone
Morphology of cES cells (puromycin 0.7 μg/ml, day 9 under selection): gone
Morphology of cES cells (puromycin 0.7 μg/ml, day 10 under selection): gone
Morphology of cES cells (puromycin 0.8 μg/ml, day 1 under selection): gone
Morphology of cES cells (puromycin 0.8 μg/ml, day 2 under selection): gone
Morphology of cES cells (puromycin 0.8 μg/ml, day 3 under selection): gone
Morphology of cES cells (puromycin 0.8 μg/ml, day 4 under selection): gone
Morphology of cES cells (puromycin 0.8 μg/ml, day 5 under selection): gone
Morphology of cES cells (puromycin 0.8 μg/ml, day 6 under selection): gone
Morphology of cES cells (puromycin 0.8 μg/ml, day 7 under selection): gone
Morphology of cES cells (puromycin 0.8 μg/ml, day 8 under selection): gone
Morphology of cES cells (puromycin 0.8 μg/ml, day 9 under selection): gone
Morphology of cES cells (puromycin 0.8 μg/ml, day 10 under selection): gone
